# Laboratory results as given in US10238667B2, “Vitamin D receptor/SMAD genomic circuit gates fibrotic response” (Salk Institute for Biological Studies, priority 2013, dated 2019).
# Tested on: SMAD3
# Assay: Immunoprecipitation/Western blot of total and phosphorylated SMAD3 in LX-2 cells
# Format: cell-based, human
# Details: TGFβ1 1 ng/ml +/- calcipotriol 100 nM
# Experimental: Nuclear extracts were immunoprecipitated using a SMAD2/3 antibody prior to Western blot analysis. Asterisks denote non-specific bands.
# The whole cell lysates were obtained through RIPA buffer lysis while isolation of nuclear extract was performed as previously reported (Ding et al., 2008). Total and nuclear SMAD3 were immunoprecipitated from LX-2 whole cell and nuclear extracts, respectively, using anti-SMAD2/3 antibody (Santa Cruz, sc-133098) followed by SDS-PAGE and western blot detection by anti-SMAD3 (Cell Signaling, 9523) and anti-pSMAD3 (Cell Signaling, 9520) specific antibodies.
smiles,measurement,value
"C=C1/C(=C\C=C2/CCC[C@]3(C)[C@@H]([C@H](C)/C=C/[C@@H](O)C4CC4)CC[C@@H]23)C[C@@H](O)C[C@@H]1O [calcipotriol, 1α,24-(OH)2-24-cyclopropyl-D3]",TGFβ1-induced phosphorylation and subsequent nuclear translocation of SMAD3,did not significantly affect
